Where two headings read alike, the source gives them in different places. Values belong to the compound of their own block, whether it stands above or below them.
Key:
[1] = test system: Alzheimer's Disease; settings: one clinical study; cited from earlier work
[2] = test system: occlusive thrombus; settings: rats, cited from earlier work; for delay of time to occlusive thrombus: 29% FeCl3 patch on abdominal aorta
[3] = cited from earlier work; for effect of αT supplementation on systemic γT: oral supplementation
[4] = test system: α-ketoglutarate dehydrogenase (αKGDH); test: Protection of αKGDH activity in rat brain mitochondria exposed to SIN-1; type: biochemical
Protocol: FIG. 5 is a graph showing rat brain mitochondria were exposed to 0.4 mM SIN-1 for 1 H after addition of tocopherol. (.) α-toc; (▪) γ-toc. The scale bars labeled [α]norm and [γ]norm indicate the normal endogenous quantities of α-toc and γ-toc, respectively, in human brain.
Mitochondria were isolated from adult rat brain then sonicated briefly in the presence of either αT or γT, or an ethanol vehicle. Mitochondria were then exposed to SIN-1, which generates NO and superoxide simultaneously at a known rate (7). Combination of NO and superoxide yields ONOO^− in situ (discussed above). Enzyme activity is destroyed by peroxynitrite and superoxide but not by NO (19).

[5] = test system: Primary cortical rat neurons; test: Neurotoxicity assay, cortical neurons exposed to SNP, LDH release; type: cell-based; settings: SNP 10 μM, 24 hours
Protocol: Cerebrocortical neurons were exposed to the indicated concentration of SNP for 24 hours. Viability was assessed by release of lactate dehydrogenase (LDH) by nonviable cells.
γ-Tocopherol was further assessed for protective ability in a neurotoxicity assay where nitrative stress was imposed. […] Media was removed and cells were then washed and medium was replaced with fresh, tocopherol-free medium.

[6] = cited from earlier work; for increase of own plasma tocopherol level above baseline: rats, 100 mg/kg/day for 10 days
[7] = test system: superoxide dismutase; settings: rats; cited from earlier work
[8] = test system: systemic lipid oxidation; settings: rats fed tocopherol two weeks after iron-dextran; cited from earlier work
[9] = test system: endothelial cells; settings: cited from earlier work
[10] = liposomes exposed to ONOO−; cited from earlier work
[11] = test system: C3H/10T½ fibroblasts; settings: methylcholanthrene-treated C3H/10T½ fibroblasts; cited from earlier work
[12] = test system: platelet aggregation; settings: rats, 100 mg/kg/day for 10 days; cited from earlier work
[13] = rat brain mitochondria, 400 μM SIN-1, 1 h

Compound: Cc1c(C)c2c(c(C)c1O)CC[C@@](C)(CCC[C@H](C)CCC[C@H](C)CCCC(C)C)O2 [αT, alpha tocopherol, reference compound]
effect on progression of Alzheimer's Disease [1]: decreases the progression of Alzheimer's Disease (AD) marginally
delay of time to occlusive thrombus ([2]; 100 mg/kg/day for 10 days): 25%
absorption by the gut ([3]; in vivo): absorbed equally well
effect of αT supplementation on systemic γT [3]: decreases systemic γT concentration
effect of αT supplementation on systemic γT ([3]; listed as α-tocopherol): depletes the human body of γ-tocopherol
concentration offering as much protection as 50-100 nM of γT ([4]; 400 μM SIN-1): 1 to 10 µM
tocopherol concentration of maximal protection of αKGDH [4, 13]: about 1 μM
protection of neurons from SNP toxicity (LDH release) ([5]; 10 μM tocopherol): ineffective
increase of own plasma tocopherol level above baseline [6]: 2 fold

decrease of αKGDH activity ([4]; 400 μM SIN-1, one hour, rat brain mitochondria): approximately 50%
Compound: Nc1c[n+](N2CCOCC2)no1 [SIN-1, reference compound]

concentration offering as much protection as 1-10 μM of αT ([4]; 400 μM SIN-1): 50 to 100 nM
protection of αKGDH in side-by-side comparison ([4]; at all concentrations tested): more protective than αT
protection of αKGDH relative to the corresponding concentration of αT ([4]; concentrations near 100 nM, 400 μM SIN-1): approximately 5 times
maximal protection of αKGDH relative to maximal protection by αT [4, 13]: approximately 2.5 times
tocopherol concentration of maximal protection of αKGDH [4, 13]: about 1 μM
Compound: Cc1c(O)cc2c(c1C)O[C@](C)(CCC[C@H](C)CCC[C@H](C)CCCC(C)C)CC2 [γT, gamma tocopherol]
superoxide dismutase activity in aortas compared to the αT treated group [7]: increased significantly
delay of time to occlusive thrombus ([2]; 100 mg/kg/day for 10 days): 65%
inhibition of iron-induced lipid peroxidation and occlusive thrombus ([2]; 100 mg/kg/day for 10 days): significantly more effective than αT supplementation
potency relative to αT at inhibition of thrombogenic correlates, referred to plasma tocopherol concentrations [2]: 20-30 times
effectiveness at inhibiting systemic lipid oxidation relative to αT [8]: approximately 35%
absorption by the gut ([3]; in vivo): absorbed equally well
packaging into lipoproteins ([3]; in vivo): less effectively than αT
incorporation into endothelial cells [9]: more rapidly than is αT
inhibition of lipid hydroperoxide formation relative to αT [10]: twice as effective
inhibition of neoplastic transformation relative to αT [11]: 4 fold
protection of neurons from SNP toxicity (LDH release) ([5]; 200 nM tocopherol): significantly protected
increase of own plasma tocopherol level above baseline [6]: 6 fold
plasma γT concentration as percent of the γT concentration (so in the source) ([6]; γT supplemented rats): ≤ 10%
inhibition of platelet aggregation kinetics relative to αT supplementation [12]: 2 fold

From patent publication US20020006954A1, “Desmethyl tocopherols for preventing or slowing degenerative neurological diseases” (Oklahoma Medical Research Foundation, priority 2000, published 2002)
